In paper PMC11875992 (Cancer research, 2025):

How the values were obtained:
KRAS G13D = KRAS G13D (Homo sapiens, UniProt P01116, G13D); experiment: cellular thermal stability assay in HCT-116 lysates, western blot; assay type: biochemical
KRAS G12C = KRAS G12C (Homo sapiens, UniProt P01116, G12C); experiment: cellular thermal stability assay; assay type: cell-based
KRAS G12C, sequence (P01116 2-186 G12C): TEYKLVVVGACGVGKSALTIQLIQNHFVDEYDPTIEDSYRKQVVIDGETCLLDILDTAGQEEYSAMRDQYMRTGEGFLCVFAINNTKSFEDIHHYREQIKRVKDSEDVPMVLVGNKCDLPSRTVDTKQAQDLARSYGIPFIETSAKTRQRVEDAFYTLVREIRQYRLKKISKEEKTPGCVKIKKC

KRAS G13D, sequence (P01116 2-186 G13D): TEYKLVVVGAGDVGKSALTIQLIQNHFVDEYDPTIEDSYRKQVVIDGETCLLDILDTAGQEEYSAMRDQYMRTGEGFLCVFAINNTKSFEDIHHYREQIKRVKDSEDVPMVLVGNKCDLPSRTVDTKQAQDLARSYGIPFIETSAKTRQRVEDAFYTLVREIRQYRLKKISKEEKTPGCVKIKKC

EC50 (KRAS G13D): 0.45 nM | EC50 (KRAS G12C): 8.49 nM
Compound: COc1cc(/C=C2/C(C)=C(CC(=O)NCc3ccco3)c3cc(F)ccc32)cc(OC)c1O [ADT-007, (Z)-2-(5-fluoro-1-(4-hydroxy-3,5-dimethoxybenzylidene)-2-methyl-1H-inden-3-yl)-N-(furan-2-ylmethyl)acetamide]
